# In patent US20240041042A1, “1-(PYRIDYL)-5-AZINYLPYRAZOLE DERIVATIVES, AND THEIR USE FOR CONTROL OF UNDESIRED PLANT GROWTH” (Bayer Aktiengesellschaft, priority 2020, published 2024):
# Like-named read-outs stand apart in the source and are kept apart here.
# Legend:
# Type in all cases: in vivo
# [1] = system: Amaranthus retroflexus (AMARE); experiment: Post-emergence herbicidal action against AMARE
# How it was run: (§1)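 Greenhouse plants sprayed at the one-leaf stage, 2–3 weeks after sowing, with WP or EC formulations plus 0.5% additive at 600 l/ha water. Activity rated visually after about 3 weeks versus untreated controls (100% = dead, 0% = like control), at 320 g/ha or lower.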
# [2] = system: Pharbitis purpurea (PHBPU); experiment: Pre-emergence herbicidal action against PHBPU
# How it was run: (§2)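 Dosages of 320 g/ha or less; pre-emergence; WP or EC in aqueous spray, 0.5% additive, 600 l/ha; greenhouse; visual % effect after ~3 wk relative to control pots.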
# Setaria viridis (SETVI) [3] = experiment: Post-emergence herbicidal action against SETVI
# How it was run: as §1
# [4] = system: Matricaria inodora (MATIN); experiment: Pre-emergence herbicidal action against MATIN
# How it was run: as §2
# [5] = system: Polygonum convolvulus (POLCO); experiment: Post-emergence herbicidal action against POLCO; conditions: dosage 80 g/ha
# How it was run: as §1
# Setaria viridis (SETVI) [6] = experiment: Pre-emergence herbicidal action against SETVI
# How it was run: as §2
# [7] = system: Alopecurus myosuroides (ALOMY); experiment: Post-emergence herbicidal action against ALOMY; conditions: visual rating about 3 weeks after treatment vs untreated controls (100% = plants have died, 0% = like control plants)
# How it was run: as §1
# Zea mays (ZEAMX) = system: Zea mays (ZEAMX)
# How it was run: (§3)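 Percent effect on the crop was judged by eye against untreated controls, where 0% means like control and 100% means dead plants. Plants had been sprayed post-emergence at the one-leaf stage and then kept under optimum greenhouse conditions for about 3 weeks.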
# Oryza sativa (ORYSA) = conditions: crop plant compatibility
# How it was run: as §3
# [8] = system: Verconica persica (VERPE); experiment: Pre-emergence herbicidal action against VERPE
# How it was run: as §2
# [9] = system: Pharbitis purpurea (PHBPU); experiment: Post-emergence herbicidal action against PHBPU
# How it was run: as §1
# [10] = system: Alopecurus myosuroides (ALOMY); experiment: Pre-emergence herbicidal action against ALOMY; conditions: scored visually after about 3 weeks, 100% = plants have died
# How it was run: as §2
# Avena fatua (AVEFA) [11] = experiment: Post-emergence herbicidal action against AVEFA; conditions: visual rating about 3 weeks after treatment
# How it was run: as §1
# [12] = system: Amaranthus retroflexus (AMARE); experiment: Pre-emergence herbicidal action against AMARE; conditions: visual scoring after about 3 weeks vs untreated controls
# How it was run: as §2
# [13] = system: Polygonum convolvulus (POLCO); experiment: Pre-emergence herbicidal action against POLCO
# How it was run: as §2
# [14] = system: Matricaria inodora (MATIN); experiment: Post-emergence herbicidal action against MATIN
# How it was run: as §1
# [15] = system: Echinochloa crus-galli (ECHCG); experiment: Pre-emergence herbicidal action against ECHCG
# How it was run: as §2
# Avena fatua (AVEFA) [16] = experiment: Pre-emergence herbicidal action against AVEFA; conditions: 320 g/ha, visual scoring after about 3 weeks vs untreated controls
# How it was run: as §2
# Viola tricolor (VIOTR) [17] = experiment: Pre-emergence herbicidal action against VIOTR
# How it was run: as §2
# [18] = system: Abutilon theophrasti (ABUTH); experiment: Pre-emergence herbicidal action against ABUTH; conditions: Dosage column 320 g/ha (title prints 3200 g/ha); scored visually after about 3 weeks; 100% = plants have died
# How it was run: as §2
# [19] = system: Verconica persica (VERPE); experiment: Post-emergence herbicidal action against VERPE
# How it was run: as §1
# [20] = system: Echinochloa crus-galli (ECHCG); experiment: Post-emergence herbicidal action against ECHCG
# How it was run: as §1
# Lolium rigidum (LOLRI) [21] = experiment: Pre-emergence herbicidal action against LOLRI
# How it was run: as §2
# [22] = system: Abutilon theophrasti (ABUTH); experiment: Post-emergence herbicidal action against ABUTH; conditions: visual rating about 3 weeks after treatment vs untreated controls (100% = plants have died, 0% = like control plants)
# How it was run: as §1
# Lolium rigidum (LOLRI) [23] = experiment: Post-emergence herbicidal action against LOLRI
# How it was run: as §1
# Viola tricolor (VIOTR) [24] = experiment: Post-emergence herbicidal action against VIOTR; conditions: 320 g/ha
# How it was run: as §1
# [25] = 80 g/ha, visual rating about 3 weeks after treatment vs untreated controls (100% = plants have died, 0% = like control plants)
smiles,measurement,setting,value
O=C(O)COc1nn(-c2ccccn2)c(-c2cncc(F)c2)c1Cl [Example I-81],Post-emergence action against AMARE in %,[1]; [25],90%
same,Pre-emergence action against PHBPU in %,[2]; dosage 80 g/ha,90%
same,Pre-emergence action against PHBPU in %,[2]; dosage 320 g/ha,100%
same,Post-emergence action against SETVI in %,Setaria viridis (SETVI) [3]; dosage 80 g/ha,80%
same,Pre-emergence action against MATIN in %,[4]; dosage 80 g/ha,80%
same,Pre-emergence action against MATIN in %,[4]; dosage 320 g/ha,90%
same,Post-emergence action against POLCO in %,[5],80%
same,Pre-emergence action against SETVI in %,Setaria viridis (SETVI) [6]; dosage 80 g/ha,90%
same,Pre-emergence action against SETVI in %,Setaria viridis (SETVI) [6]; dosage 320 g/ha,100%
same,Post-emergence action against ALOMY in %,[7]; 80 g/ha,90%
same,Post-emergence action against ZEAMX in % (crop plant compatibility),"Zea mays (ZEAMX); 20 g/ha, ZEAMX, effect in comparison to untreated controls",0%
same,Post-emergence action against ZEAMX in %,"Zea mays (ZEAMX); crop plant compatibility, 80 g/ha, effect vs untreated controls",0%
same,Post-emergence action against ORYSA in %,"Oryza sativa (ORYSA); 20 g/ha, effect vs untreated controls",0%
same,Post-emergence action against ORYSA in %,"Oryza sativa (ORYSA); 80 g/ha, effect in comparison to untreated controls",0%
same,Pre-emergence action against VERPE in %,[8]; dosage 320 g/ha,90%
same,Post-emergence action against PHBPU in %,[9]; dosage 80 g/ha,90%
same,Pre-emergence action against ALOMY,[10]; 80 g/ha,80%
same,Pre-emergence action against ALOMY,[10]; 320 g/ha,100%
same,Post-emergence action against AVEFA in %,Avena fatua (AVEFA) [11]; 80 g/ha,90%
same,Pre-emergence action against AMARE in %,[12]; 80 g/ha,80%
same,Pre-emergence action against AMARE in %,[12]; 320 g/ha,90%
same,Pre-emergence action against POLCO in %,[13]; dosage 80 g/ha,90%
same,Pre-emergence action against POLCO in %,[13]; dosage 320 g/ha,90%
same,Post-emergence action against MATIN in %,[14]; dosage 80 g/ha,90%
same,Pre-emergence action against ECHCG in %,[15]; dosage 80 g/ha,90%
same,Pre-emergence action against ECHCG in %,[15]; dosage 320 g/ha,100%
same,Pre-emergence action against AVEFA in %,Avena fatua (AVEFA) [16],80%
same,Pre-emergence action against VIOTR in %,"Viola tricolor (VIOTR) [17]; 320 g/ha, Viola tricolor",100%
same,Pre-emergence action against VIOTR in %,Viola tricolor (VIOTR) [17]; dosage 80 g/ha,80%
same,Pre-emergence action against ABUTH,[18],90%
same,Post-emergence action against VERPE in %,[19]; dosage 80 g/ha,90%
same,Post-emergence action against ECHCG in %,[20]; dosage 80 g/ha,90%
same,Pre-emergence action against LOLRI in %,Lolium rigidum (LOLRI) [21]; dosage 80 g/ha,90%
same,Pre-emergence action against LOLRI in %,Lolium rigidum (LOLRI) [21]; dosage 320 g/ha,100%
same,Post-emergence action against ABUTH in %,[22]; 80 g/ha,80%
COC(=O)[C@@H](C)Oc1nn(-c2nc(F)ccc2F)c(-c2cncc(F)c2)c1Br [Example I-191],Post-emergence action against AMARE in %,[1]; [25],80%
same,Post-emergence action against AMARE in %,"[1]; 320 g/ha, visual rating about 3 weeks after treatment",80%
same,Pre-emergence action against PHBPU in %,[2]; dosage 80 g/ha,80%
same,Pre-emergence action against PHBPU in %,[2]; dosage 320 g/ha,90%
same,Post-emergence action against SETVI in %,Setaria viridis (SETVI) [3]; dosage 80 g/ha,80%
same,Post-emergence action against SETVI in %,Setaria viridis (SETVI) [3]; dosage 320 g/ha,80%
same,Pre-emergence action against MATIN in %,[4]; dosage 80 g/ha,90%
same,Pre-emergence action against MATIN in %,[4]; dosage 320 g/ha,90%
same,Pre-emergence action against SETVI in %,Setaria viridis (SETVI) [6]; dosage 80 g/ha,80%
same,Pre-emergence action against SETVI in %,Setaria viridis (SETVI) [6]; dosage 320 g/ha,100%
same,Post-emergence action against ALOMY in %,[7]; 80 g/ha,80%
same,Post-emergence action against ALOMY in %,[7]; 320 g/ha,90%
same,Pre-emergence action against VERPE in %,[8]; dosage 80 g/ha,100%
same,Pre-emergence action against VERPE in %,[8]; dosage 320 g/ha,100%
same,Post-emergence action against PHBPU in %,[9]; dosage 80 g/ha,90%
same,Post-emergence action against PHBPU in %,[9]; dosage 320 g/ha,100%
same,Pre-emergence action against ALOMY,[10]; 80 g/ha,80%
same,Pre-emergence action against ALOMY,[10]; 320 g/ha,90%
same,Post-emergence action against LOLRI in %,Lolium rigidum (LOLRI) [23]; dosage 80 g/ha,90%
same,Post-emergence action against LOLRI in %,Lolium rigidum (LOLRI) [23]; dosage 320 g/ha,90%
same,Post-emergence action against AVEFA in %,Avena fatua (AVEFA) [11]; 80 g/ha,80%
same,Post-emergence action against AVEFA in %,Avena fatua (AVEFA) [11]; 320 g/ha,90%
same,Pre-emergence action against AMARE in %,[12]; 80 g/ha,90%
same,Pre-emergence action against AMARE in %,[12]; 320 g/ha,100%
same,Pre-emergence action against POLCO in %,[13]; dosage 80 g/ha,80%
same,Pre-emergence action against POLCO in %,[13]; dosage 320 g/ha,90%
same,Post-emergence action against MATIN in %,[14]; dosage 320 g/ha,80%
same,Pre-emergence action against ECHCG in %,[15]; dosage 80 g/ha,90%
same,Pre-emergence action against ECHCG in %,[15]; dosage 320 g/ha,100%
same,Post-emergence action against VIOTR in %,Viola tricolor (VIOTR) [24],80%
same,Pre-emergence action against AVEFA in %,Avena fatua (AVEFA) [16],100%
same,Pre-emergence action against VIOTR in %,"Viola tricolor (VIOTR) [17]; 320 g/ha, Viola tricolor",100%
same,Pre-emergence action against VIOTR in %,Viola tricolor (VIOTR) [17]; dosage 80 g/ha,100%
same,Pre-emergence action against ABUTH,[18],90%
same,Post-emergence action against VERPE in %,"[19]; 320 g/ha, VERPE",90%
same,Post-emergence action against VERPE in %,[19]; dosage 80 g/ha,80%
same,Post-emergence action against ECHCG in %,[20]; dosage 80 g/ha,80%
same,Post-emergence action against ECHCG in %,[20]; dosage 320 g/ha,80%
same,Pre-emergence action against LOLRI in %,Lolium rigidum (LOLRI) [21]; dosage 80 g/ha,90%
same,Pre-emergence action against LOLRI in %,Lolium rigidum (LOLRI) [21]; dosage 320 g/ha,90%
same,Post-emergence action against ABUTH in %,[22]; 80 g/ha,80%
same,Post-emergence action against ABUTH in %,[22]; 320 g/ha,80%
